Results published in ChEMBL document CHEMBL1201862, “PubChem BioAssay data set” (2004).
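1) Cells in 96-well plates. 2) Compound, 48 h, 5 concentrations. 3) Linear interpolation between surrounding doses. 4) Unreached endpoint = highest concentration. At the GI50, growth is halved.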 Activity calls are given as the source filed them. Rule as the data show it: active = GI50 up to about 1.1 µM and inactive = higher.

Experiments:
Assay in all cases: NCI anticancer screen, dose series, 48 h
[1] = test system: EKVX
[2] = test system: SF-539
[3] = test system: SF-295
[4] = test system: 786-0
[5] = test system: U-251
[6] = test system: SW-620
[7] = test system: HOP-92
[8] = test system: PC-3
[9] = test system: SK-MEL-5
[10] = test system: CCRF-CEM
[11] = test system: UO-31
[12] = test system: UACC-62
[13] = test system: SN12C
[14] = test system: SK-OV-3
[15] = test system: HCC 2998
[16] = test system: OVCAR-5
[17] = test system: TK-10
[18] = test system: HOP-62
[19] = test system: UACC-257
[20] = test system: IGROV-1

Row | SMILES | GI50 [1] | GI50 [2] | GI50 [3] | GI50 [4] | GI50 [5] | GI50 [6] | GI50 [7] | GI50 [8] | GI50 [9] | GI50 [10] | GI50 [11] | GI50 [12] | GI50 [13] | GI50 [14] | GI50 [15] | GI50 [16] | GI50 [17] | GI50 [18] | GI50 [19] | GI50 [20]
1 | COc1ccc(C2C3=C(COC3=O)Oc3cc4c(cc32)OCO4)cc1OC (centres undefined) | 3.61 µM (inactive) | 0.547 µM (active) | 0.716 µM (active) | 1.04 µM (active) | 0.785 µM (active) | 0.492 µM (active) | 39.4 µM (inactive) | 0.521 µM (active) | 0.489 µM (active) | 0.428 µM (active) | 3.73 µM (inactive) | 0.859 µM (active) | 5.26 µM (inactive) | 0.75 µM (active) | 0.614 µM (active) | 8.97 µM (inactive) | 12.1 µM (inactive) | 1.44 µM (inactive) | 6.87 µM (inactive) | 0.713 µM (active)
2 | N#Cc1c(-c2ccc(Cl)cc2)cc(-c2ccc(Nc3ccnc4cc(Cl)ccc34)cc2)[nH]c1=O | > 82.2 µM (inactive) | > 95.7 µM (inactive) | 16.6 µM (inactive) | 17.6 µM (inactive) | 15.5 µM (inactive) | > 100 µM (inactive) | 18.1 µM (inactive) | > 100 µM (inactive) | > 100 µM (inactive) | 16 µM (inactive) | > 100 µM (inactive) | > 100 µM (inactive) |  | 34.7 µM (inactive) | > 100 µM (inactive) | > 61.7 µM (inactive) | 13.1 µM (inactive) | 15.1 µM (inactive) | > 100 µM (inactive) | > 100 µM (inactive)
3 | Oc1ccc(/N=N/c2ccc(Cl)cc2)cc1 | 17.3 µM (inactive) | 18.4 µM (inactive) | 16.4 µM (inactive) | 17.3 µM (inactive) | 15.4 µM (inactive) | 30.5 µM (inactive) | 12.7 µM (inactive) | 14.9 µM (inactive) | 11.7 µM (inactive) | 4.63 µM (inactive) | 13.7 µM (inactive) | 11.9 µM (inactive) | 17.1 µM (inactive) | 21.9 µM (inactive) | 15.7 µM (inactive) | 17.4 µM (inactive) | 18.1 µM (inactive) | 18.4 µM (inactive) | 15.8 µM (inactive) | 12.9 µM (inactive)
4 | CC(=O)O[C@H]1[C@@H](OC2CCCC2(c2ccccc2)c2ccccc2)O[N+]([O-])=C[C@@]12COCc1cc3c(cc12)OCO3 (some centres undefined) | 3.02 µM (inactive) | 93.3 µM (inactive) | 5.25 µM (inactive) | 6.58 µM (inactive) | 7.48 µM (inactive) | 7.03 µM (inactive) | 5.13 µM (inactive) | 4.2 µM (inactive) | 4.6 µM (inactive) | 2.83 µM (inactive) | 4.42 µM (inactive) | 8.39 µM (inactive) | 3.78 µM (inactive) | 30.1 µM (inactive) | 3.25 µM (inactive) | 18.7 µM (inactive) | 7.85 µM (inactive) | 2.99 µM (inactive) | 18.2 µM (inactive) | 3.54 µM (inactive)
5 | CC(=O)OC1COC(n2nc(/C=C/c3ccc(Cl)cc3)c(=O)n(/N=C/c3ccccc3)c2=S)C(OC(C)=O)C1OC(C)=O (centres undefined) | > 100 µM (inactive) | > 100 µM (inactive) | > 100 µM (inactive) | > 100 µM (inactive) | > 100 µM (inactive) | > 100 µM (inactive) | > 100 µM (inactive) | > 100 µM (inactive) | > 100 µM (inactive) | > 100 µM (inactive) | > 100 µM (inactive) | > 100 µM (inactive) | > 100 µM (inactive) | > 100 µM (inactive) | > 100 µM (inactive) | > 100 µM (inactive) | > 100 µM (inactive) | > 100 µM (inactive) | > 100 µM (inactive) | > 100 µM (inactive)
